Reference: ChEMBL document CHEMBL5260832, “Hepatoprotective natural triterpenoids” (Eur J Med Chem, 2018)

Tests used:
[1] = Hepatotoxicity in D-GaIN induced Wistar rat assessed as change in GTP leakage level for 10 days relative to control; type: toxicity; details: in vivo, 240 h, time 10 day
[2] = Hepatotoxicity in D-GaIN induced Wistar rat assessed as change in induction of TAT level for 10 days relative to control; type: toxicity; parameters: concentration or dose not given beside the values; details: in vivo, 240 h, time 10 day
HepG2 [3] = experiment: Hepatoprotective activity against H2O2-induced human HepG2 cells assessed as increase in ALT level; type: functional
HepG2 [4] = experiment: Hepatoprotective activity against H2O2-induced human HepG2 cells assessed as increase in AST level; type: functional
[5] = Cytotoxicity against human HepG2 cells assessed as reduction in cell viability by SRB assay; type: toxicity, cell-based
Hepatocyte [6] = experiment: Hepatoprotective activity against H2O2-induced cell damage in rat hepatocyte assessed as reduction in cell growth; type: functional, cell-based
L02 = experiment: Hepatoprotective activity against D-GaIN-induced in human HL7702 cells assessed as cell damage at 10 uM relative to control; type: functional
Mus musculus [7] = species: Mus musculus; experiment: Hepatoprotective activity in mouse liver homogenate assessed as inhibition of iron/ascorbate lipid peroxidation at 0.1 mg/mL relative to control; type: functional; parameters: scale not given: the % may be the effect or the level left
Mus musculus [8] = species: Mus musculus; experiment: Hepatoprotective activity in mouse liver homogenate assessed as inhibition of iron/ascorbate lipid peroxidation at 5.0 mg/mL relative to control; type: functional; parameters: scale not given: the % may be the effect or the level left
Hepatocyte [9] = experiment: Hepatoprotective activity against D-GaIN/TNFalpha-induced cell death in mouse hepatocyte at 50 uM relative to control; type: functional
Hepatocyte [10] = experiment: Hepatoprotective activity against D-GaIN/TNFalpha-induced cell death in mouse hepatocyte at 200 uM relative to control; type: functional
Hepatocyte [11] = experiment: Hepatoprotective activity against D-GaIN/TNFalpha-induced cell death in mouse hepatocyte at 100 uM relative to control; type: functional, cell-based; details: dose 100 µM
Mus musculus [12] = experiment: Hepatoprotective activity against D-GaIN/LPS induced liver injury mouse model assessed as reduction in sAST at 100 mg/kg, ip relative to control; type: functional; parameters: scale not given: the % may be the effect or the level left
Mus musculus [13] = experiment: Hepatoprotective activity against D-GaIN/LPS induced liver injury mouse model assessed as reduction in sALT at 100 mg/kg, ip relative to control; type: functional; parameters: scale not given: the % may be the effect or the level left
Hepatocyte [14] = experiment: Hepatoprotective activity against D-GaIN/TNFalpha-induced cell death in mouse hepatocyte at 25 uM relative to control; type: functional
Mus musculus [15] = species: Mus musculus; experiment: Hepatoprotective activity against D-GaIN/LPS induced liver injury mouse model assessed as increase in sAST relative to control; type: functional
Mus musculus [16] = species: Mus musculus; experiment: Hepatoprotective activity against D-GaIN/LPS induced liver injury mouse model assessed as increase in sALT relative to control; type: functional
HepG2 [17] = experiment: Hepatoprotective activity against H2O2-induced cell death in human HepG2 cells assessed as reduction in ALT level at 20 uM preincubated for 1 hr followed by H2O2-stimulation and measured after 24 hrs; type: functional
HepG2 [18] = experiment: Hepatoprotective activity against H2O2-induced cell death in human HepG2 cells assessed as reduction in AST level at 20 uM preincubated for 1 hr followed by H2O2-stimulation and measured after 24 hrs; type: functional

SMILES: C[C@H]1[C@H](C)CC[C@@]2(C)[C@@H]1C1=CC[C@@H]3[C@@]4(C)CC[C@H](O)C(C)(C)[C@@H]4CC[C@@]3(C)[C@]1(C)C[C@@H]2O
- Activity [1]: 46.7%
- Activity [2]: 39.8%

SMILES: COC(=O)C(C)[C@@H](O)C(=O)C[C@@H](C)[C@H]1C[C@H](O)[C@@]2(C)[C@@H]3C(=O)C[C@H]4C(C)(C)[C@@H](O)CC[C@]4(C)[C@H]3C(=O)C[C@]12C (some centres not stated)
- Activity (HepG2 [3]): 18.51 U/L
- Activity (HepG2 [4]): 19.5 U/L

SMILES: C/C(=C\CC[C@@H](C)[C@H]1CC[C@@]2(C)C3=CC[C@H]4C(C)(C)[C@@H](O)CC[C@]4(C)C3=CC[C@]12C)CO [GANODEROL B]
- Activity (HepG2 [3]): 18.97 U/L
- Activity (HepG2 [4]): 26.42 U/L

SMILES: CC1=C[C@@]2(C[C@H]([C@H]3CC[C@@]4(C)[C@@H]5CC[C@H]6C(C)(C)[C@@H](O)C=C[C@@]67C[C@@]57CC[C@]34C)[C@H](O)O2)OC1=O
- EC50 [5]: 37.9 µM

SMILES: CC1=C[C@]2(C=C([C@H]3CC[C@@]4(C)[C@@H]5CC[C@H]6C(C)(C)C(=O)C=C[C@]67C[C@]57CC[C@]34C)C(=O)N2)OC1=O
- EC50 (Hepatocyte [6]): 167 µM

SMILES: CC(C)=CCC[C@H](C(=O)O)[C@@H]1CC[C@]2(C)C3=C(CC[C@@]12C)[C@@]1(C)CCC(=O)C(C)(C)[C@@H]1CC3=O
- Activity (L02): 25.6%

SMILES: CC1(C)CC[C@]2(C(=O)O)CC[C@]3(C)C(=CC[C@@H]4[C@@]5(C)C[C@@H](O)[C@@H](O)C(C)(C)[C@@H]5CC[C@]43C)[C@@H]2C1
- Activity (Mus musculus [7]): 16.8%
- Activity (Mus musculus [8]): 52.7%

SMILES: CC(=O)N[C@@H](CS)C(=O)O [ACETYLCYSTEINE]
- EC50 (Hepatocyte [6]): 106 µM

SMILES: CC1(C)CC[C@]2(C(=O)O[C@@H]3O[C@H](CO)[C@@H](O)[C@H](O)[C@H]3O)CC[C@]3(C)[C@H](C=C[C@@H]4[C@@]5(C)C[C@@H](O)[C@H](O)[C@@](C)(CO)[C@@H]5CC[C@]43C)[C@H]2[C@@H]1O
- Activity (Hepatocyte [9]): 8%
- Activity (Hepatocyte [10]): 8%
- Activity (Hepatocyte [11]): 8%

SMILES: CC(C)=CCC[C@](C)(O)C1CC[C@]2(C)[C@@H]1[C@H](O[C@H]1O[C@@H](CO[C@H]3O[C@@H](CO)[C@H](O)[C@@H](O)[C@@H]3O)[C@H](O)[C@@H](O)[C@@H]1O)C[C@@H]1[C@@]3(C)CC[C@H](O[C@@H]4O[C@H](CO)[C@@H](O)[C@H](O)[C@H]4O[C@@H]4O[C@H](CO)[C@@H](O)[C@H](O)[C@H]4O)C[C@@H]3CC[C@]12C (some centres not stated)
- Activity (Mus musculus [12]): 40%
- Activity (Mus musculus [13]): 33%

SMILES: C[C@H]1[C@H](C)CC[C@@]2(C)[C@@H]1C1=CC[C@@H]3[C@@]4(C)CC[C@@H](O)C(C)(C)[C@@H]4CC[C@@]3(C)[C@]1(C)C[C@@H]2O
- Activity [1]: 22.7%
- Activity [2]: 48%

SMILES: CC1(C)CC[C@]2(C(=O)O)CC[C@]3(C)[C@H](C=C[C@@H]4[C@@]5(C)C[C@@H](O)[C@H](O)C(C)(C)[C@@H]5[C@H](O)C[C@]43C)[C@H]2[C@@H]1O
- Activity (Hepatocyte [11]): 24.4%
- Activity (Hepatocyte [14]): 15.4%

SMILES: CC1(C)CC[C@]2(C(=O)O)CC[C@]3(C)[C@H](C=C[C@@H]4[C@@]5(C)C[C@@H](O)[C@H](O)[C@@](C)(CO)[C@@H]5CC[C@]43C)[C@H]2[C@@H]1O
- Activity (Hepatocyte [9]): 8%
- Activity (Hepatocyte [10]): 8%
- Activity (Hepatocyte [11]): 8%

SMILES: CC(C)=CCC[C@](C)(O)C1CC[C@]2(C)[C@@H]1[C@H](O[C@H]1O[C@@H](CO[C@H]3OC[C@H](O)[C@@H](O)[C@@H]3O)[C@H](O)[C@@H](O)[C@@H]1O)C[C@@H]1[C@@]3(C)CC[C@H](O[C@@H]4O[C@H](CO)[C@@H](O)[C@H](O)[C@H]4O[C@@H]4O[C@H](CO)[C@@H](O)[C@H](O)[C@H]4O)C[C@@H]3CC[C@]12C (some centres not stated)
- Activity (Mus musculus [12]): 40%
- Activity (Mus musculus [15]): 40%
- Activity (Mus musculus [13]): 33%
- Activity (Mus musculus [16]): 33%

SMILES: C=C(C)[C@@H]1C[C@H](O)C2=C(C(=O)C[C@]3(C)[C@@H]([C@H](C)CCC(=O)OC)CC[C@@]23C)[C@@]1(C)CCC(=O)OC
- Activity (HepG2 [17]): 16.06 U/L
- Activity (HepG2 [18]): 19.09 U/L

SMILES: CC1(C)CC[C@]2(C(=O)O)CC[C@]3(C)[C@H](C=C[C@@H]4[C@@]5(C)C[C@@H](O)[C@H](O)C(C)(C)[C@@H]5CC[C@]43C)[C@H]2[C@@H]1O
- Activity (Hepatocyte [11]): 32.9%
- Activity (Hepatocyte [14]): 15.4%

SMILES: CC(C)=CCC[C@](C)(O)C1CC[C@]2(C)[C@@H]1[C@H](O[C@H]1O[C@@H](CO[C@@H]3O[C@@H](CO)[C@H](O)[C@H]3O)[C@H](O)[C@@H](O)[C@@H]1O)C[C@@H]1[C@@]3(C)CC[C@H](O[C@@H]4O[C@H](CO)[C@@H](O)[C@H](O)[C@H]4O[C@@H]4O[C@H](CO)[C@@H](O)[C@H](O)[C@H]4O)C[C@@H]3CC[C@]12C (some centres not stated)
- Activity (Mus musculus [12]): 40%
- Activity (Mus musculus [15]): 87%
- Activity (Mus musculus [13]): 33%
- Activity (Mus musculus [16]): 89%

SMILES: CC(=O)[C@H]1CC(=O)[C@@]2(C)C3=C(C(=O)C[C@]12C)[C@@]1(C)CC[C@H](O)C(C)(C)[C@@H]1C[C@@H]3O [LUCIDONE A]
- Activity (HepG2 [3]): 17.46 U/L
- Activity (HepG2 [4]): 21.18 U/L

SMILES: CC1=C[C@@]2(C[C@H]([C@H]3CC[C@@]4(C)[C@@H]5CC[C@H]6C(C)(C)[C@@H](O)C=C[C@@]67C[C@@]57CC[C@]34C)[C@@H](O)O2)OC1=O
- EC50 [5]: 123 µM

SMILES: C=C(C)[C@@H]1C[C@H](O)C2=C(C(=O)C[C@]3(C)[C@@H]([C@H](C)CCC(=O)O)CC[C@@]23C)[C@@]1(C)CCC(=O)OC
- Activity (HepG2 [17]): 16.06 U/L
- Activity (HepG2 [18]): 19.09 U/L

SMILES: CC(C)=C[C@H]1C[C@@H]([C@@H]2CC[C@]3(C)C4=CC(=O)[C@H]5C(C)(C)[C@H](O)CC[C@]5(C)[C@H]4CC[C@@]23C)C(=O)O1
- Activity (L02): 30.4%

SMILES: C[C@@]1(CO)CC[C@]2(C(=O)O[C@@H]3O[C@H](CO)[C@@H](O)[C@H](O)[C@H]3O)CC[C@]3(C)[C@H](C=C[C@@H]4[C@@]5(C)C[C@@H](O)[C@H](O)[C@@](C)(CO)[C@@H]5CC[C@]43C)[C@H]2C1
- Activity (Hepatocyte [9]): 8%
- Activity (Hepatocyte [10]): 8%
- Activity (Hepatocyte [11]): 8%
- Activity (Hepatocyte [14]): 15.1%

SMILES: C=C(C)[C@@H]1CC[C@]2(C(=O)O)CC[C@]3(C)[C@H](CC[C@@H]4[C@@]5(C)C[C@@H](O)[C@H](O)C(C)(C)[C@@H]5CC[C@]43C)[C@@H]12
- Activity (Mus musculus [7]): 13.7%

SMILES: CC(C)=CCC[C@H](C(=O)O)[C@@H]1CC[C@]2(C)C3=C(CC[C@@]12C)[C@@]1(C)CC[C@@H](O)C(C)(C)[C@@H]1CC3
- Activity (L02): 30.1%

SMILES: CC1=C[C@]2(C=C([C@H]3CC[C@@]4(C)[C@@H]5CC[C@H]6C(C)(C)C(=O)C=C[C@@]67C[C@@]57CC[C@]34C)C(=O)N2)OC1=O
- EC50 (Hepatocyte [6]): 126 µM

SMILES: CC1(C)CC[C@]2(C(=O)O)CC[C@]3(C)[C@H](C=C[C@@H]4[C@@]5(C)C[C@@H](O)[C@H](O)[C@](C)(CO)[C@@H]5CC[C@]43C)[C@H]2C1
- Activity (Hepatocyte [11]): 108.4%
- Activity (Hepatocyte [14]): 15.4%

SMILES: CC(C)=CCC[C@H](C(=O)O)[C@@H]1CC[C@]2(C)C3=C(CC[C@@]12C)[C@@]1(C)CC[C@H](O)C(C)(C)[C@@H]1CC3
- Activity (L02): 50.5%
